The text below walks through data of the supplement of paper PMC11208160.
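Also: IS621 recombinase and bridge RNA in Escherichia coli cells.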

The nature of this data set: recombinant barcode read abundance after kanamycin selection (control-corrected) (log10(CPM+1)); higher = more efficient recombination; sequences stand for … in AGTGCAGAGAAAATCGGCCAGTTTTCTCTGCCTGCAGTCCGCATGCCGT…AGATTTATGCAGCGGACTGCCTTTCTCCCAAAGTGATAAACCGGACAGTATCATGGACCGGTTTTCCCGGTAATCCGTATTTGCAAGGTTGGTTTCACT; site = the 11-nt target. Summed up: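 Pooled oligos, each joining a target to an IS621 bridge RNA target-binding loop, were cloned and co-electroporated with a donor plasmid into E. coli. Selective plates carried chloramphenicol/ampicillin/kanamycin and 0.1 mM IPTG, while chloramphenicol/ampicillin LB agar served as control, with two replicates of each. Recombination efficiency rests on averaged, control-corrected counts per million of barcodes at recombinant junctions, shown as log10(CPM+1).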
On to “TAGACTACTTGGGTTCTAACCTGTTGCTC (site TAGACTACTCA)”, for which the “recombinant barcode read abundance (log10)” value was determined as 0.082.
The value for “TAGACTACTTGGGTTCTAACCTGTTGCTC (site TAGACTACTGA)” was 0.123; that for “TAGACTACTTGGGTTCTAACCTGTTGCTC (site TAGACTACTTA)” was 0.0392.
The value for “TAGACTACTTGGGTTCTAACCTGTTGCTG (site TAGACTACTAA)” was 0.0928; that for “TAGACTACTTGGGTTCTAACCTGTTGCTG (site TAGACTACTCA)” was 0.609; that for “TAGACTACTTGGGTTCTAACCTGTTGCTG (site TAGACTACTGA)” was 0.215.
The value for “TAGACTACTTGGGTTCTAACCTGTTGCTG (site TAGACTACTTA)” was 0.0595; that for “TAGAGCACTTGGGTTCTAACCTGTTGCCT (site AAGAGCACTAG)” was 0.057.
For the sequence “TAGAGCACTTGGGTTCTAACCTGTTGCCT (site CAGAGCACTAG)”, the “recombinant barcode read abundance (log10)” value amounted to 0.114.
For “TAGAGCACTTGGGTTCTAACCTGTTGCCT (site GAGAGCACTAG)” the value was 0.0873.
For “TAGAGCACTTGGGTTCTAACCTGTTGCCT (site TAGAGCACTAG)” the value was 0.644; for “TAGATCACTTGGGTTCTAACCTGTTGCAT (site TAGATCACTAT)”, 0.629.
The value for “TAGATCACTTGGGTTCTAACCTGTTGCAT (site TAGCTCACTAT)” was 0.408; that for “TAGATCACTTGGGTTCTAACCTGTTGCAT (site TAGGTCACTAT)” was 0.0386; that for “TAGATCACTTGGGTTCTAACCTGTTGCAT (site TAGTTCACTAT)” was 0.0464.
With “TAGATTACTTGGGTTCTAACCTGTTGCCT (site TAAAATACTAG)”, the “recombinant barcode read abundance (log10)” value came to 0.12.
Take “TAGATTACTTGGGTTCTAACCTGTTGCCT (site TAGATTACTAG)”: the “recombinant barcode read abundance (log10)” value turned out to be 0.178.
The value for “TAGATTCCTTGGGTTCTAACCTGTTGCAA (site CGACAGTCTAG)” was 0.102; that for “TAGATTCCTTGGGTTCTAACCTGTTGCAA (site TAGATTCCTTT)” was 0.0712.
“TAGCACCCTTGGGTTCTAACCTGTTGCCA (site TAGCACCCTAG)”: the “recombinant barcode read abundance (log10)” value came to 0.394.
For “TAGCACCCTTGGGTTCTAACCTGTTGCCA (site TAGCACCCTCG)” the value was 0.218; for “TAGCACCCTTGGGTTCTAACCTGTTGCCA (site TAGCACCCTGG)”, 0.156; for “TAGCACCCTTGGGTTCTAACCTGTTGCCA (site TAGCACCCTTG)”, 0.965.
For “TAGCACCCTTGGGTTCTAACCTGTTGCCT (site TAGCACCCTAG)” the value was 1.79; for “TAGCACCCTTGGGTTCTAACCTGTTGCCT (site TAGCACCCTCG)”, 0.0128.
The value for “TAGCACCCTTGGGTTCTAACCTGTTGCCT (site TAGCACCCTGG)” was 0.671; that for “TAGCACCCTTGGGTTCTAACCTGTTGCCT (site TAGCACCCTTG)” was 0.144; that for “TAGCATACTTGGGTTCTAACCTGTTGCCT (site TAGCATACTAG)” was 1.37.
“TAGCATACTTGGGTTCTAACCTGTTGCCT (site TAGCATACTCG)”: the “recombinant barcode read abundance (log10)” value was 0.112.
Turning to “TAGCATACTTGGGTTCTAACCTGTTGCCT (site TAGCATACTGG)”, the “recombinant barcode read abundance (log10)” value was determined as 0.308.
The value for “TAGCATACTTGGGTTCTAACCTGTTGCCT (site TAGCATACTTG)” was 0.0681; that for “TAGCCCACTTGGGTTCTAACCTGTTGCGG (site TAGCACACTCC)” was 0.0811.
